For 2 molecules, Activity, Kd and inhibition results are on record in ChEMBL document CHEMBL4033755, “19F-NMR-Based Dual-Site Reporter Assay for the Discovery and Distinction of Catalytic and Allosteric Kinase Inhibitors” (ACS Med Chem Lett, 2017).

Activity calls are given as the source filed them. The rule behind the calls is not given here.

Assay [1] addresses T1, Tyrosine-protein kinase ABL1 (Homo sapiens, UniProt P00519). Briefly: Binding affinity to allosteric site of N-terminal His6-tagged ABL (83 to 534 residues) (unknown origin) expressed in Escherichia coli co-expressing Protein Tyrosine Phosphatase 1b at 25 uM in presence of ABL001.
Assay [2] addresses T1, Tyrosine-protein kinase ABL1. Briefly: Binding affinity to catalytic site of N-terminal His6-tagged ABL (83 to 534 residues) (unknown origin) expressed in Escherichia coli co-expressing Protein Tyrosine Phosphatase 1b by NMR spectroscopy based dual-site competition assay.
Assay [3] has the same target. Briefly: Displacement of CAT-1 from catalytic site of N-terminal His6-tagged ABL (83 to 534 residues) (unknown origin) expressed in Escherichia coli co-expressing Protein Tyrosine Phosphatase 1b at 25 and 50 uM by 19F NMR spectroscopy based dual-site competition assay.
Assay [4] has the same target. In words: Displacement of ALLO-1 from allosteric site of N-terminal His6-tagged ABL (83 to 534 residues) (unknown origin) expressed in Escherichia coli co-expressing Protein Tyrosine Phosphatase 1b at 25 to 250 uM by 19F NMR spectroscopy based dual-site competition assay.
Assay [5] has the same target. Briefly: Displacement of CAT-1 from catalytic site of N-terminal His6-tagged ABL (83 to 534 residues) (unknown origin) expressed in Escherichia coli co-expressing Protein Tyrosine Phosphatase 1b at 25 to 250 uM by 19F NMR spectroscopy based dual-site competition assay.

T1 sequence (P00519 whole entry, the tested form may be a part): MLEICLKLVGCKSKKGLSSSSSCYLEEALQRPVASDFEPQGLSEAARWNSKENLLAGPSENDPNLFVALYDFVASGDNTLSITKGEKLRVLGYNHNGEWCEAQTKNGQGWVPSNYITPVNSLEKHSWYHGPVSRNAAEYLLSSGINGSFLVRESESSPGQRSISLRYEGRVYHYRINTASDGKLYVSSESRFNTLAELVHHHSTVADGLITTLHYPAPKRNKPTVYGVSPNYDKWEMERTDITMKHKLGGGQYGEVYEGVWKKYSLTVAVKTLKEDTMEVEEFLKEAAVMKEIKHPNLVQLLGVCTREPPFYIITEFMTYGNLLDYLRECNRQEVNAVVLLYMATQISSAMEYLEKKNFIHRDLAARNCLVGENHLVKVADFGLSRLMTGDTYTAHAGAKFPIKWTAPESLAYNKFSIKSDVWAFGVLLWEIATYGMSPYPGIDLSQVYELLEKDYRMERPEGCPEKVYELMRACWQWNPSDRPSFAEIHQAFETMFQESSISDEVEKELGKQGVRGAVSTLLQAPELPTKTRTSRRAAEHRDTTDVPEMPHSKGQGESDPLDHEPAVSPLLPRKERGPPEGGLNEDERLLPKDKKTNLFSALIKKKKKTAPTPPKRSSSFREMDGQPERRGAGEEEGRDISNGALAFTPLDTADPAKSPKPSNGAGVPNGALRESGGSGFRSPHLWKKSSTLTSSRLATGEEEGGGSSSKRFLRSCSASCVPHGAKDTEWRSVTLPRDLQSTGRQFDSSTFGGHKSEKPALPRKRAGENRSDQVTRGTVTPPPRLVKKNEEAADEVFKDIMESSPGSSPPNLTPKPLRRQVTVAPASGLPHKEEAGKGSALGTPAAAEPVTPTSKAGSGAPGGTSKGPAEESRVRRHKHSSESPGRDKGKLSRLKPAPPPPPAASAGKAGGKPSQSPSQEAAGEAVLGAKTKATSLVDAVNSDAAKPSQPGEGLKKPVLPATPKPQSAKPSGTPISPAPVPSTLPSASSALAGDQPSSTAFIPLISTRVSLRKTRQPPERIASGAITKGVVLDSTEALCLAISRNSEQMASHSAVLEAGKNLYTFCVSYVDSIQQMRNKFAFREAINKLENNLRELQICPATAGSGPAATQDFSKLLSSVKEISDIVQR

The term Kd denotes a measure of binding affinity in units of concentration. For the molecule `NC(=O)C1CCN(c2ccc(C(F)(F)F)cn2)CC1`, the result in assay [1] was Active. The same molecule came in with a Kd in assay [2] of 43 µM.
`FC(F)(F)Oc1ccc(Nc2ccncn2)cc1`: the inhibition result in assay [3] is “inactive”. Further, the inhibition result in assay [4] and in assay [5] was “Active” each time.
